Test results as given in US20160264570A1, “METHOD OF BLOCKING TRANSMISSION OF MALARIAL PARASITE” (THE UNITED STATES OF AMERICA, AS REPRESENTED BY THE …, priority 2013, published 2016).
pEC50: −log10 of the molar value. Where two headings read alike, the source gives them in different places.

How the values were obtained:
[1] = system: Asexual parasites of P. falciparum strain 3D7; assay: SYBR Green viability assay on asexual parasites; assay type: cell-based, Plasmodium falciparum; conditions: read-out: Activity against asexual parasites EC50
[2] = system: P. falciparum strain 3D7 gametocytes; assay: alamarBlue gametocyte viability assay, strain 3D7
[3] = read-out: Gametocytocidal activity EC50, Table 6
[4] = Plasmodium falciparum, 3D7, Table 7
[5] = Plasmodium falciparum, 3D7, read-out: Gametocytocidal activity EC50, Table 7

Compound | pEC50 ([1]; Table 6) | pEC50 [2, 3] | pEC50 [1, 4] | pEC50 [2, 5]
O=c1ccc2cnc3ccc(-c4ccc(-c5nnn[nH]5)cc4)cc3c2n1-c1cccc(C(F)(F)F)c1 | < 4.70 | 4.68 | – | –
O=c1ccc2cnc3ccc(-c4ccc(Cl)cc4)cc3c2n1-c1cccc(C(F)(F)F)c1 | 6.60 | 6.17 | – | –
COc1ccc(-c2ccc3ncc4ccc(=O)n(-c5cccc(C(F)(F)F)c5)c4c3c2)cc1 | 5.61 | 5.49 | – | –
CC(=O)c1cccc(-c2ccc3ncc4ccc(=O)n(-c5cccc(C(F)(F)F)c5)c4c3c2)c1 | 6.45 | 5.91 | – | –
O=c1ccc2cnc3ccc(-c4ccc5c(c4)OCC5)cc3c2n1-c1cccc(C(F)(F)F)c1 | 5.65 | 5.48 | – | –
Cn1ccc2cc(-c3ccc4ncc5ccc(=O)n(-c6cccc(C(F)(F)F)c6)c5c4c3)ccc21 | 5.68 | 5.49 | – | –
O=c1ccc2cnc3ccc(-c4ccc5c(c4)OCO5)cc3c2n1-c1cccc(C(F)(F)F)c1 | 6.10 | 5.50 | – | –
O=c1ccc2cnc3ccc(-c4ccc(F)cc4)cc3c2n1-c1cccc(C(F)(F)F)c1 | 6.24 | 5.58 | – | –
O=c1ccc2cnc3ccc(-c4ccc(O)cc4)cc3c2n1-c1cccc(C(F)(F)F)c1 | 6.89 | 6.78 | – | –
Cc1ccc(-c2ccc3ncc4[nH]c(=O)n(-c5cccc(C(F)(F)F)c5)c4c3c2)cn1 | – | – | 7.23 | 6.35
Nc1ccc(-c2ccc3ncc4[nH]c(=O)n(-c5cccc(C(F)(F)F)c5)c4c3c2)cc1 | – | – | 6.82 | 6.20
CC(=O)Nc1ccc(-c2ccc3ncc4[nH]c(=O)n(-c5cccc(C(F)(F)F)c5)c4c3c2)cn1 | – | – | 7.46 | 6.91
O=c1[nH]c2cnc3ccc(-c4ccc(O)cc4)cc3c2n1-c1cccc(C(F)(F)F)c1 | – | – | 6.40 | 5.85
Nc1cccc(-c2ccc3ncc4[nH]c(=O)n(-c5cccc(C(F)(F)F)c5)c4c3c2)c1 | – | – | 6.86 | 6.27
O=c1[nH]c2cnc3ccc(-c4ccncc4)cc3c2n1-c1cccc(C(F)(F)F)c1 | – | – | 6.68 | 5.91
O=c1[nH]c2cnc3ccc(-c4ccc5[nH]cnc5c4)cc3c2n1-c1cccc(C(F)(F)F)c1 | – | – | 7.05 | 6.27
CS(=O)(=O)c1ccc(-c2ccc3ncc4[nH]c(=O)n(-c5cccc(C(F)(F)F)c5)c4c3c2)cc1 | – | – | 6.21 | 5.69
O=c1[nH]c2cnc3ccc(-c4cnc5ccccc5c4)cc3c2n1-c1cccc(C(F)(F)F)c1 | – | – | 5.24 | 3.67
Nc1ncc(-c2ccc3ncc4[nH]c(=O)n(-c5cccc(C(F)(F)F)c5)c4c3c2)cn1 | – | – | 7.24 | 6.61
Cn1c(=O)n(-c2cccc(C(F)(F)F)c2)c2c3cc(-c4cccc(N)c4)ccc3ncc21 | – | – | 7.80 | 7.16
O=c1[nH]c2cnc3ccc(-c4cccnc4)cc3c2n1-c1cccc(C(F)(F)F)c1 | – | – | 5.85 | 5.25
NC(=O)c1ccc(-c2ccc3ncc4[nH]c(=O)n(-c5cccc(C(F)(F)F)c5)c4c3c2)cc1 | – | – | 7.35 | 6.64
Cn1c(=O)n(-c2cccc(C(F)(F)F)c2)c2c3cc(-c4ccc(N)cc4)ccc3ncc21 | – | – | 7.80 | 7.16
Cn1c(=O)n(-c2cccc(C(F)(F)F)c2)c2c3cc(-c4ccc(C(N)=O)cc4)ccc3ncc21 | – | – | 7.70 | 6.96
Cn1c(=O)n(-c2cccc(C(F)(F)F)c2)c2c3cc(-c4ccc(C(N)=O)nc4)ccc3ncc21 | – | – | 8.10 | 7.37
Cn1c(=O)n(-c2cccc(C(F)(F)F)c2)c2c3cc(-c4cnc(N)nc4)ccc3ncc21 | – | – | 8.15 | 7.51
